Here are results for five compounds from patent US10760110B2, “Antibiotic testing and screening system” (priority 2017, dated 2020).

Values after ≈ are worked out from the molar mass of the structure shown. Read-outs that look alike come from different tables or passages of the source.

For test [1], the system named is A. baumannii KW1 strains with aminoglycoside resistance plasmids. Briefly: Etest MIC of aminoglycosides, aminoglycoside-modifying enzyme or 16S rRNA methylase (Table 19). It counts as cell-based, Acinetobacter baumannii. How it is done:
(§1) DNA fragments of the resistance genes along with their flanking regions were amplified from clinical plasmids via PCR with specific primer pairs. The resulting PCR fragments were digested and then cloned into the plasmid pYMAb5 or pYMAb5Tc. The resulting plasmids were then transformed into A. baumannii KW1 via electroporation.
(§2) The MICs of antibiotics were determined using the Etest (Biodisk AB, Sweden) according to the manufacturer's instructions. The MICs from the Etest, which fall between standard two-fold dilutions, were rounded up to the next highest two-fold value. The MICs of ceftazidime and cefotaxime against K. pneumoniae NVT1001 harbouring the pACYC177 plasmid with blaOXA-48 were further determined using a broth microdilution test according to the recommendations of the CLSI,^25 and the results were interpreted according to the breakpoints established by the CLSI in 2017.^25 Meanwhile, due to the lack of CLSI breakpoints in 2016 and 2017, the results for cephalothin were interpreted according to the breakpoints established by the CLSI in 2015,^26 and the results for moxifloxacin were interpreted according to the breakpoints established by the EUCAST in 2017.^27

Test [2] relates to K. pneumoniae NVT1001 strains with aminoglycoside resistance plasmids. Briefly: Etest MIC of aminoglycosides, aminoglycoside-modifying enzyme or 16S rRNA methylase (Table 13). It counts as cell-based, Klebsiella pneumoniae. How it is done:
DNA fragments of the resistance genes along with their flanking regions were amplified from clinical plasmids via PCR with specific primer pairs. The resulting PCR fragments were digested and then cloned into the plasmid pACYC177 or pACYC184. The resulting plasmids were then transformed into K. pneumoniae strain NVT1001 via electroporation. The recombinant bacteria were plated onto LB agar plates containing kanamycin (50 mg/L) or chloramphenicol (50 mg/L), and the presence of the cloned gene was confirmed via PCR and DNA sequencing.
as §2

The test system of test [3] is A. baumannii KW1 strains with β-lactamase plasmids. Description: Etest MIC of β-lactams, extended-spectrum β-lactamase, AmpC β-lactamase or carbapenemase (Table 18). It counts as cell-based, Acinetobacter baumannii. How it is done: as §1, §2
Test [4] concerns K. pneumoniae NVT1001 and its ΔompK35/36 and/or ΔramR mutants. Description: Etest MIC, OmpK35/36 loss and AcrAB-TolC overexpression (ΔramR) strains (Table 6). Particulars: Klebsiella pneumoniae. It counts as cell-based, Klebsiella pneumoniae. How it is done:
as §2

Setting [5] is: KW1 with AAC(3)-IIa on pYMAb5Tc.
[6] abbreviates: KW1 with ANT(2”)-Ia on pYMAb5Tc.
Where [7] appears, read: KW1 with ANT(3”)-Ia on pYMAb5Tc.
Where [8] appears, read: KW1 with APH(3')-Ia on pYMAb5Tc.
Where [9] appears, read: KW1 with APH(3')-VIa on pYMAb5Tc.
The mark [10] stands for this setting: KW1 with shuttle vector pYMAb5Tc.
[11] abbreviates: NVT1001, no supplemental plasmid.
Setting [12] is: NVT1001 with AAC(3)-IId on pACYC184.
Setting [13] is: NVT1001 with AAC(3)-IVa on pACYC184.
Setting [14] is: NVT1001 with AAC(6′)-Ib-cr on pACYC184.
[15] abbreviates: NVT1001 with ANT(2″)-Ia on pACYC184.
Where [16] appears, read: NVT1001 with ANT(3″)-Ia on pACYC184.
The mark [17] stands for this setting: NVT1001 with APH(3′)-IIa on pACYC184.
The mark [18] stands for this setting: NVT1001 with APH(3′)-Ia on pACYC184.
[19] abbreviates: NVT1001 with StrA-StrB on pACYC184.

For orientation: MIC means the lowest concentration found to suppress growth. On to `CCN[C@@H]1C[C@H](N)[C@@H](O[C@H]2OC(CN)=CC[C@H]2N)[C@H](O)[C@H]1O[C@H]1OC[C@](C)(O)[C@H](NC)[C@H]1O` [NET], for which the minimum inhibitory concentration (MIC) in test [1] (KW1, no supplemental plasmid) came out at 1.5 µg/mL; in test [1] (setting [5]), 1.5 µg/mL; in test [1] (setting [6]), 1.5 µg/mL; in test [1] (setting [7]) it was 1.5 µg/mL; in test [1] (setting [8]) it was 1.5 µg/mL; in test [1] (setting [9]), 1.5 µg/mL. Besides, the minimum inhibitory concentration (MIC) in test [1] (KW1 with ArmA on pYMAb5Tc) was more than 256 µg/mL; in test [1] (setting [10]) it was 1.5 µg/mL; in test [2] (setting [11]) it was 0.5 µg/mL; in test [2] (setting [12]) it was 4 µg/mL; in test [2] (setting [13]), 64 µg/mL; in test [2] (setting [14]), 8 µg/mL. The MIC in test [2] (setting [15]) is 1 µg/mL; in test [2] (setting [16]) it was 0.5 µg/mL; in test [2] (setting [17]) it was 0.5 µg/mL; in test [2] (setting [18]) it was 0.5 µg/mL; in test [2] (NVT1001 with ArmA on pACYC184) it was more than 256 µg/mL; in test [2] (NVT1001 with RmtB on pACYC184), more than 256 µg/mL. In addition, the minimal inhibitory concentration (MIC) in test [2] (setting [19]) is 0.5 µg/mL.

As to `NCC[C@H](O)C(=O)N[C@@H]1C[C@H](N)[C@@H](O[C@H]2O[C@H](CN)[C@@H](O)[C@H](O)[C@H]2O)[C@H](O)[C@H]1O[C@H]1O[C@H](CO)[C@@H](O)[C@H](N)[C@H]1O` [AMK], the MIC was 2 µg/mL in test [1] (KW1, no supplemental plasmid); 2 µg/mL in test [1] (setting [5]); 2 µg/mL in test [1] (setting [6]); 2 µg/mL in test [1] (setting [7]); 2 µg/mL in test [1] (setting [8]); 2 µg/mL in test [1] (setting [9]). The MIC in test [1] (KW1 with ArmA on pYMAb5Tc) is more than 256 µg/mL; in test [1] (setting [10]), 2 µg/mL; in test [2] (setting [11]) it was 2 µg/mL; in test [2] (setting [12]), 2 µg/mL; in test [2] (setting [13]) it was 2 µg/mL; in test [2] (setting [14]) it was 8 µg/mL. The MIC is 2 µg/mL in test [2] (setting [15]); 2 µg/mL in test [2] (setting [16]); 2 µg/mL in test [2] (setting [17]); 2 µg/mL in test [2] (setting [18]); more than 256 µg/mL in test [2] (NVT1001 with ArmA on pACYC184); more than 256 µg/mL in test [2] (NVT1001 with RmtB on pACYC184). The MIC in test [2] (setting [19]) worked out at 2 µg/mL.

As for `C[C@@H](O)[C@H]1C(=O)N2C(C(=O)O)=C(S[C@@H]3CN[C@H](C(=O)Nc4cccc(C(=O)O)c4)C3)[C@H](C)[C@H]12` [ETP], the MIC was 3 µg/mL in test [3] (KW1, no supplemental plasmid); more than 32 µg/mL in test [3] (KW1 with ADC-30 on pYMAb5); 12 µg/mL in test [3] (KW1 with CTX-M-15 on pYMAb5); more than 32 µg/mL in test [3] (KW1 with IMP-1 on pYMAb5); more than 32 µg/mL in test [3] (KW1 with NDM-1 on pYMAb5); more than 32 µg/mL in test [3] (KW1 with OXA-23 on pYMAb5). Besides, the MIC was more than 32 µg/mL in test [3] (KW1 with OXA-58 on pYMAb5); more than 32 µg/mL in test [3] (KW1 with OXA-66 on pYMAb5); more than 32 µg/mL in test [3] (KW1 with OXA-72 on pYMAb5); 3 µg/mL in test [3] (KW1 with VEB-3 on pYMAb5); more than 32 µg/mL in test [3] (KW1 with VIM-1 on pYMAb5); 3 µg/mL in test [3] (KW1 with shuttle vector pYMAb5).

For `NC[C@@H]1O[C@@H](O[C@H]2[C@H](O)[C@@H](O[C@H]3O[C@H](CO)[C@@H](O)[C@H](N)[C@H]3O)[C@H](N)C[C@@H]2N)[C@@H](O)[C@H](O)[C@H]1O` [KAN], the minimum inhibitory concentration (MIC) in test [1] (KW1, no supplemental plasmid) was 2 µg/mL; in test [1] (setting [5]), 2 µg/mL; in test [1] (setting [6]), 4 µg/mL; in test [1] (setting [7]), 2 µg/mL; in test [1] (setting [8]), 16 µg/mL; in test [1] (setting [9]), 16 µg/mL. For the same compound, the minimal inhibitory concentration (MIC) in test [1] (KW1 with ArmA on pYMAb5Tc) is more than 256 µg/mL; in test [1] (setting [10]), 2 µg/mL; in test [2] (setting [11]), 2 µg/mL; in test [2] (setting [12]) it was 4 µg/mL; in test [2] (setting [13]), 8 µg/mL; in test [2] (setting [14]) it was 32 µg/mL. The minimal inhibitory concentration (MIC) in test [2] (setting [15]) is more than 256 µg/mL; in test [2] (setting [16]) it was 2 µg/mL; in test [2] (setting [17]) it was more than 256 µg/mL; in test [2] (setting [18]), more than 256 µg/mL; in test [2] (NVT1001 with ArmA on pACYC184) it was more than 256 µg/mL; in test [2] (NVT1001 with RmtB on pACYC184), more than 256 µg/mL. The minimal inhibitory concentration (MIC) in test [2] (setting [19]) was 2 µg/mL.

For the compound `CCN[C@@H]1C[C@H](N)[C@@H](O[C@H]2OC(CN)=CC[C@H]2N)[C@H](O)[C@H]1O[C@H]1OC[C@](C)(O)[C@H](NC)[C@H]1O` [Netilmicin], in test [1] (production of aminoglycoside-modifying enzymes), the “effects on the MIC” value is “no increase effects”. The minimal inhibitory concentration (MIC) in test [4] (WT, NVT1001, read-out: MIC) came to 0.5 µg/mL (≈ 1.05 µM); in test [4] (Δ35, ΔompK35 mutant), 0.5 µg/mL (≈ 1.05 µM); in test [4] (Δ35/36, ΔompK35/36 mutant) it was 0.5 µg/mL (≈ 1.05 µM); in test [4] (Δ36, ΔompK36 mutant), 0.5 µg/mL (≈ 1.05 µM); in test [4] (ΔramR mutant), 0.5 µg/mL (≈ 1.05 µM); in test [4] (ΔramRΔ35, ΔramRΔompK35 mutant), 0.25 µg/mL (≈ 0.526 µM). Also, the minimal inhibitory concentration (MIC) in test [4] (ΔramRΔ35/36, ΔramRΔompK35/36 mutant) was determined as 0.5 µg/mL (≈ 1.05 µM); in test [4] (ΔramRΔ36, ΔramRΔompK36 mutant), 0.5 µg/mL (≈ 1.05 µM).
